Values of other authors in US11622991B2, “Protocol for treatment of lupus nephritis” (Aurinia Pharmaceuticals Inc., priority 2017, dated 2023).

Tested on: lupus nephritis
Conditions: standard of care for LN; cited from earlier work

Row | Compound | partial remission, cases
1 | O=P1(N(CCCl)CCCl)NCCCO1 (centres unmarked) [cyclophosphamide] | approximately 50%
2 | COc1c(C)c2c(c(O)c1C/C=C(\C)CCC(=O)OCCN1CCOCC1)C(=O)OC2 [mycophenolate mofetil] | approximately 50%
